Results on 8 compounds are retold here after patent publication US11572399B2, “Long-acting GIP peptide analogues” (University of Copenhagen, priority 2017, dated 2023).

Read-outs that look alike come from different tables or passages of the source. Peptide text beside a SMILES is read from it. * marks the point of attachment. C16 diacid = O=C(O)CCCCCCCCCCCCCCC(=O)*; Stearoyl = CCCCCCCCCCCCCCCCCC(=O)*; Palmitoyl = CCCCCCCCCCCCCCCC(=O)*

Assay [1] has as its target T1, human GIP receptor (Homo sapiens, UniProt P48546).
T1 construct: host or cells: COS-7, transient transfection (calcium phosphate), cDNA in pCMV-Script
T1 sequence (P48546 22-466): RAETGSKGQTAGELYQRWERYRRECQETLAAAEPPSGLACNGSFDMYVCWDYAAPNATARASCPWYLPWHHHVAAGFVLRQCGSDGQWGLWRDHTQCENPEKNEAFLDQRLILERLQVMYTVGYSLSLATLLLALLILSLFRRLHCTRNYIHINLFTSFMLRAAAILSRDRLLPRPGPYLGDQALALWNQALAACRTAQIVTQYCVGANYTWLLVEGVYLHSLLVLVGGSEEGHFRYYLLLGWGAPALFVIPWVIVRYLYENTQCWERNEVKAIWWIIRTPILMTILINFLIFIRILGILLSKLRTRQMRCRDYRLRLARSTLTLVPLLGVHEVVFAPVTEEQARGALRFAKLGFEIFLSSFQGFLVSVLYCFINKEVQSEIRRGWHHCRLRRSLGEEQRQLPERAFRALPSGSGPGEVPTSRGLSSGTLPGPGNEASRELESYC
Kind of assay: cAMP accumulation assay, antagonism of a GIP-mediated cAMP response (50-80% of max). Format: cell-based. Here is the method: The day after, the cells were washed twice with Hepes buffered saline (HBS) buffer and incubated with HBS and 1 mM 3-isobutyl-1-methylxanthine (IBMX) for 30 min at 37° C. […] The HitHunter™ cAMP XS assay (DiscoveRx) was carried out according to the manufacturer's instructions.
A general note: Changes in cAMP serve as a functional read-out for many G protein-coupled receptors.

In assay [2] the target is T1, human GIP receptor. Kind of assay: cAMP accumulation assay, agonism (ligand alone). Format: cell-based. The following applies: Table 1; for Emax: COS-7, intrinsic cAMP activity.
Assay [3] addresses T1, human GIP receptor. Kind of assay: 125I-human GIP competition binding assay, in the presence and absence of 2% HSA.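 Further: nonspecific binding taken as radioligand bound to untransfected cells, IC50 obtained from nonlinear regression fits.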 The following applies: fold change +HSA/−HSA.
[4] abbreviates: transiently transfected COS-7 cells, Table 1 and text, read-out: cAMP antagonism nM (IC50, antagonistic potency).
[5] abbreviates: COS-7 cells, read-out: cAMP agonism nM (EC50).

The term Emax denotes the greatest response seen or fitted, relative to the assay's reference. For the compound `CCCCCCCCCCCC(=O)NCCCC[C@H](NC(=O)[C@H](CCC(N)=O)NC(=O)[C@H](C)NC(=O)[C@H](CC(C)C)NC(=O)[C@H](CC(C)C)NC(=O)[C@H](Cc1c[nH]c2ccccc12)NC(=O)[C@H](CC(N)=O)NC(=O)[C@@H](NC(=O)[C@H](Cc1ccccc1)NC(=O)[C@H](CC(=O)O)NC(=O)[C@H](CCC(N)=O)NC(=O)[C@H](CCC(N)=O)NC(=O)[C@H](Cc1c[nH]cn1)NC(=O)[C@@H](NC(=O)[C@H](CCCCN)NC(=O)[C@H](CC(=O)O)NC(=O)[C@H](CCSC)NC(=O)[C@H](C)NC(=O)[C@@H](NC(=O)[C@H](CO)NC(=O)[C@H](Cc1ccc(O)cc1)NC(=O)[C@H](CC(=O)O)NC(=O)[C@H](CO)NC(=O)[C@@H](NC(=O)[C@H](Cc1ccccc1)NC(=O)[C@@H](NC(=O)CNC(=O)[C@@H](N)CCC(=O)O)[C@@H](C)O)[C@@H](C)CC)[C@@H](C)CC)[C@@H](C)CC)C(C)C)C(N)=O` [AT103, [hGIP(3-30)NH2—C12/30]], the IC50 on human GIP receptor [1] (setting [4]) came out at 121 nM. For the same compound, on human GIP receptor [2] (COS-7 cells), the Emax stood at 7%.
On the same counts, the results for `CCCCCCCCCCCCCCCC(=O)NCCCC[C@H](NC(=O)[C@H](CC(=O)O)NC(=O)[C@H](CCSC)NC(=O)[C@H](C)NC(=O)[C@@H](NC(=O)[C@H](CO)NC(=O)[C@H](Cc1ccc(O)cc1)NC(=O)[C@H](CC(=O)O)NC(=O)[C@H](CO)NC(=O)[C@@H](NC(=O)[C@H](Cc1ccccc1)NC(=O)[C@@H](N)[C@@H](C)O)[C@@H](C)CC)[C@@H](C)CC)C(=O)N[C@H](C(=O)N[C@@H](Cc1c[nH]cn1)C(=O)N[C@@H](CCC(N)=O)C(=O)N[C@@H](CCC(N)=O)C(=O)N[C@@H](CC(=O)O)C(=O)N[C@@H](Cc1ccccc1)C(=O)N[C@H](C(=O)N[C@@H](CC(N)=O)C(=O)N[C@@H](Cc1c[nH]c2ccccc12)C(=O)N[C@@H](CC(C)C)C(=O)N[C@@H](CC(C)C)C(=O)N[C@@H](C)C(=O)N[C@@H](CCC(N)=O)C(=O)N[C@@H](CCCCN)C(N)=O)C(C)C)[C@@H](C)CC` [AT125, [hGIP(5-30)NH2—C16/16]] are 131 nM and 0%.
`CCCCCCCCCCCCCCCCCC(=O)NCCCC[C@H](NC(=O)[C@H](CC(=O)O)NC(=O)[C@H](CCSC)NC(=O)[C@H](C)NC(=O)[C@@H](NC(=O)[C@H](CO)NC(=O)[C@H](Cc1ccc(O)cc1)NC(=O)[C@H](CC(=O)O)NC(=O)[C@H](CO)NC(=O)[C@@H](NC(=O)[C@H](Cc1ccccc1)NC(=O)[C@@H](N)[C@@H](C)O)[C@@H](C)CC)[C@@H](C)CC)C(=O)N[C@H](C(=O)N[C@@H](Cc1c[nH]cn1)C(=O)N[C@@H](CCC(N)=O)C(=O)N[C@@H](CCC(N)=O)C(=O)N[C@@H](CC(=O)O)C(=O)N[C@@H](Cc1ccccc1)C(=O)N[C@H](C(=O)N[C@@H](CC(N)=O)C(=O)N[C@@H](Cc1c[nH]c2ccccc12)C(=O)N[C@@H](CC(C)C)C(=O)N[C@@H](CC(C)C)C(=O)N[C@@H](C)C(=O)N[C@@H](CCC(N)=O)C(=O)N[C@@H](CCCCN)C(N)=O)C(C)C)[C@@H](C)CC` [AT128, [hGIP(5-30)NH2—C18/16]]: the IC50 at human GIP receptor [1] (setting [4]) stood at 114 nM. The Emax at human GIP receptor [2] (COS-7 cells) was 25%.
As a reminder, the EC50 is the concentration that produces a half-maximal response. On to `CCCCCCCCCCCCCCCC(=O)NCCCC[C@H](NC(=O)[C@@H](NC(=O)[C@H](CCCCN)NC(=O)[C@H](CC(=O)O)NC(=O)[C@H](CCSC)NC(=O)[C@H](C)NC(=O)[C@@H](NC(=O)[C@H](CO)NC(=O)[C@H](Cc1ccc(O)cc1)NC(=O)[C@H](CC(=O)O)NC(=O)[C@H](CO)NC(=O)[C@@H](NC(=O)[C@H](Cc1ccccc1)NC(=O)[C@@H](N)[C@@H](C)O)[C@@H](C)CC)[C@@H](C)CC)[C@@H](C)CC)C(=O)N[C@@H](CCC(N)=O)C(=O)N[C@@H](CCC(N)=O)C(=O)N[C@@H](CC(=O)O)C(=O)N[C@@H](Cc1ccccc1)C(=O)N[C@H](C(=O)N[C@@H](CC(N)=O)C(=O)N[C@@H](Cc1c[nH]c2ccccc12)C(=O)N[C@@H](CC(C)C)C(=O)N[C@@H](CC(C)C)C(=O)N[C@@H](C)C(=O)N[C@@H](CCC(N)=O)C(=O)N[C@@H](CCCCN)C(N)=O)C(C)C` [AT145, [hGIP(5-30)NH2[H18K]-C16/18]] (H-TFISDYSIAMDKIK(Palmitoyl)QQDFVNWLLAQK-NH2; N-terminus assumed), for which the IC50 on human GIP receptor [1] (setting [4]) worked out at 66 nM. For the same compound, at human GIP receptor [2] (COS-7 cells), the Emax was found to be 16%. On human GIP receptor [2] (setting [5]), the EC50 was 33 nM.
As for `CC[C@H](C)[C@H](NC(=O)[C@H](CO)NC(=O)[C@H](Cc1ccc(O)cc1)NC(=O)[C@H](CC(=O)O)NC(=O)[C@H](CO)NC(=O)[C@@H](NC(=O)[C@H](Cc1ccccc1)NC(=O)[C@@H](N)[C@@H](C)O)[C@@H](C)CC)C(=O)N[C@@H](C)C(=O)N[C@@H](CCSC)C(=O)N[C@@H](CC(=O)O)C(=O)N[C@@H](CCCNC(=N)N)C(=O)N[C@H](C(=O)N[C@@H](CCCCNC(=O)CCCCCCCCCCCCCCC(=O)O)C(=O)N[C@@H](CCC(N)=O)C(=O)N[C@@H](CCC(N)=O)C(=O)N[C@@H](CC(=O)O)C(=O)N[C@@H](Cc1ccccc1)C(=O)N[C@H](C(=O)N[C@@H](CC(N)=O)C(=O)N[C@@H](Cc1c[nH]c2ccccc12)C(=O)N[C@@H](CC(C)C)C(=O)N[C@@H](CC(C)C)C(=O)N[C@@H](C)C(=O)N[C@@H](CCC(N)=O)C(=O)N[C@@H](CCCNC(=N)N)C(N)=O)C(C)C)[C@@H](C)CC` [AT157, [hGIP(5-30)NH2[K16R; H18K; K30R]-C16diacid/18]] (H-TFISDYSIAMDRIK(C16 diacid)QQDFVNWLLAQR-NH2; N-terminus assumed), the IC50 at human GIP receptor [1] (given as log IC50 (negative sign), transiently transfected COS-7 cells, Table 1, read-out: cAMP antagonism log (converted)) was 7.94 nM; on human GIP receptor [1] (setting [4]), 7 nM. The same compound returned an Emax on human GIP receptor [2] (COS-7 cells) of 12%. For the same compound, the EC50 at human GIP receptor [2] (given as log EC50 (negative sign), read-out: cAMP agonism EC50 (log) (converted)) is 10 nM.
For the compound `CCCCCCCCCCCCCCCCCC(=O)NCCCC[C@H](NC(=O)[C@@H](NC(=O)[C@H](CCCCN)NC(=O)[C@H](CC(=O)O)NC(=O)[C@H](CCSC)NC(=O)[C@H](C)NC(=O)[C@@H](NC(=O)[C@H](CO)NC(=O)[C@H](Cc1ccc(O)cc1)NC(=O)[C@H](CC(=O)O)NC(=O)[C@H](CO)NC(=O)[C@@H](NC(=O)[C@H](Cc1ccccc1)NC(=O)[C@@H](N)[C@@H](C)O)[C@@H](C)CC)[C@@H](C)CC)[C@@H](C)CC)C(=O)N[C@@H](CCC(N)=O)C(=O)N[C@@H](CCC(N)=O)C(=O)N[C@@H](CC(=O)O)C(=O)N[C@@H](Cc1ccccc1)C(=O)N[C@H](C(=O)N[C@@H](CC(N)=O)C(=O)N[C@@H](Cc1c[nH]c2ccccc12)C(=O)N[C@@H](CC(C)C)C(=O)N[C@@H](CC(C)C)C(=O)N[C@@H](C)C(=O)N[C@@H](CCC(N)=O)C(=O)N[C@@H](CCCCN)C(N)=O)C(C)C` [AT161, [hGIP(5-30)NH2[H18K]-C18/18]] (H-TFISDYSIAMDKIK(Stearoyl)QQDFVNWLLAQK-NH2; N-terminus assumed), the IC50 on human GIP receptor [1] (setting [4]) amounted to 252 nM. On human GIP receptor [2] (COS-7 cells), this compound registered an Emax of 7%.
As to `CC[C@H](C)[C@H](NC(=O)[C@H](CO)NC(=O)[C@H](Cc1ccc(O)cc1)NC(=O)[C@H](CC(=O)O)NC(=O)[C@H](CO)NC(=O)[C@@H](NC(=O)[C@H](Cc1ccccc1)NC(=O)[C@H](CCCCNC(=O)CCCCCCCCCCCCCCC(=O)O)NC(=O)CNC(=O)[C@@H](N)CCC(=O)O)[C@@H](C)CC)C(=O)N[C@@H](C)C(=O)N[C@@H](CCSC)C(=O)N[C@@H](CC(=O)O)C(=O)N[C@@H](CCCCN)C(=O)N[C@H](C(=O)N[C@@H](Cc1c[nH]cn1)C(=O)N[C@@H](CCC(N)=O)C(=O)N[C@@H](CCC(N)=O)C(=O)N[C@@H](CC(=O)O)C(=O)N[C@@H](Cc1ccccc1)C(=O)N[C@H](C(=O)N[C@@H](CC(N)=O)C(=O)N[C@@H](Cc1c[nH]c2ccccc12)C(=O)N[C@@H](CC(C)C)C(=O)N[C@@H](CC(C)C)C(=O)N[C@@H](C)C(=O)N[C@@H](CCC(N)=O)C(=O)N[C@@H](CCCCN)C(N)=O)C(C)C)[C@@H](C)CC` [AT296, [hGIP(3-30)NH2[T5K]-C16diacid/5]], the IC50 at human GIP receptor [1] (setting [4]) is 14 nM. Moreover, the Emax at human GIP receptor [2] (COS-7 cells) was 6.7%. Also, on human GIP receptor [2] (setting [5]), the EC50 turned out to be 2.6 nM.
For `CC[C@H](C)[C@H](NC(=O)[C@H](CO)NC(=O)[C@H](Cc1ccc(O)cc1)NC(=O)[C@H](CC(=O)O)NC(=O)[C@H](CO)NC(=O)[C@@H](NC(=O)[C@H](Cc1ccccc1)NC(=O)[C@@H](N)[C@@H](C)O)[C@@H](C)CC)C(=O)N[C@@H](C)C(=O)N[C@@H](CCSC)C(=O)N[C@@H](CC(=O)O)C(=O)N[C@@H](CCCCN)C(=O)N[C@H](C(=O)N[C@@H](Cc1c[nH]cn1)C(=O)N[C@@H](CCC(N)=O)C(=O)N[C@@H](CCC(N)=O)C(=O)N[C@@H](CC(=O)O)C(=O)N[C@@H](Cc1ccccc1)C(=O)N[C@H](C(=O)N[C@@H](CC(N)=O)C(=O)N[C@@H](Cc1c[nH]c2ccccc12)C(=O)N[C@@H](CC(C)C)C(=O)N[C@@H](CC(C)C)C(=O)N[C@@H](C)C(=O)N[C@@H](CCC(N)=O)C(=O)N[C@@H](CCCCN)C(N)=O)C(C)C)[C@@H](C)CC` [hGIP(5-30)NH2, reference compound], the IC50 at human GIP receptor [1] (cAMP accumulation IC50 (nM), antagonism of GIP-mediated cAMP response, COS-7 cells) came to 27.5 nM; against human GIP receptor [1] (cAMP antagonism nM (IC50, antagonistic potency), transiently transfected COS-7 cells, Table 1 and text), 28 nM. Besides, at human GIP receptor [3], the “Binding (+/−HSA) Fold” value is on record as 1.0.
